Consider two molecules from US6713494B1, “Amorphous benzothiophenes, methods of preparation and methods of use” (Eli Lilly and Company, priority 1996, dated 2004).

Where a name gives a salt, the structure may show the parent alone. Read-outs that look alike come from different tables or passages of the source.

For data set [1] the following is noted: long term studies; birefringence under polarized light microscope.
Procedure: The presence of the amorphous form of a compound of formula I was determined by observing the material under a polarized light microscope, and determining if the material was birefringent. If no birefringence was observed, the material was considered to be amorphous.
The amorphous material was also made as a complex with povidone, with ratios of raloxifene HCl to PVP as follows: 9:1, 3:1, and 1:1 (w/w). Complexes with hydroxypropyl-β-cyclodextrin (HPBCD) were also prepared, with a ratio of raloxifene HCl to HPBCD of from 1:1 to 1:4 (w/w).
A further data set can be described thus: physchem. As to conditions: water, 37 °C, thermodynamic from solid, in water, in sonicator.
For data set [2] the following is noted: for Solubility: in water, room temperature, hydrochloride.
Data set [3] in a line: Bioavailability study: plasma levels in dogs. In kind it is in vivo. The settings on record: 4 mg/kg, PEG vehicle, plasma levels over a 10 hour period, amorphous vs crystalline form. On the procedure:
The extent and rate of absorption of the crystalline and amorphous forms of raloxifene HCl was determined. The two forms of the compound were formulated in a PEG vehicle as follows: […]
Six dogs were dosed as follows: three dogs received the amorphous form, while three dogs received the crystalline form, both at a dose of 4 mg/kg. Plasma levels of the two compound forms were then determined over a 10 hour period.

`O=C(c1ccc(OCCN2CCCCC2)cc1)c1c(-c2ccc(O)cc2)sc2cc(O)ccc12` [amorphous, raloxifene hydrochloride]: in data set [1], the “Stability of the amorphous form” value is “very stable”. For the same molecule, the Solubility was determined as 120 mg/mL in “physchem” and 42.2 mg/mL in data set [2]. Moreover, the “Solubility of the amorphous form relative to the crystalline form” value in data set [2] (amorphous vs crystalline form) was “approximately 250 times”. Besides, the “Bioavailability (plasma levels)” value in data set [3] is on record as “greater bioavailability”.

With `O=C(c1ccc(OCCN2CCCCC2)cc1)c1c(-c2ccc(O)cc2)sc2cc(O)ccc12` [crystalline, raloxifene hydrochloride, reference compound], the Solubility in data set [2] amounted to 0.08 mg/mL.
